Measurements from patent US8513250B2 (Laboratoire Biodim, priority 2007, dated 2013).
Where a name gives a salt, the structure may show the parent alone. Read-outs that look alike come from different tables or passages of the source.

Biological target: T1, DltA enzyme (Streptococcus agalactiae serotype III, UniProt Q8VM67)
T1 construct: His-tag (from pET100 vector) (N); made in house; host or cells: E. coli BL21 (DE3) Star
T1 sequence (Q8VM67 1-511): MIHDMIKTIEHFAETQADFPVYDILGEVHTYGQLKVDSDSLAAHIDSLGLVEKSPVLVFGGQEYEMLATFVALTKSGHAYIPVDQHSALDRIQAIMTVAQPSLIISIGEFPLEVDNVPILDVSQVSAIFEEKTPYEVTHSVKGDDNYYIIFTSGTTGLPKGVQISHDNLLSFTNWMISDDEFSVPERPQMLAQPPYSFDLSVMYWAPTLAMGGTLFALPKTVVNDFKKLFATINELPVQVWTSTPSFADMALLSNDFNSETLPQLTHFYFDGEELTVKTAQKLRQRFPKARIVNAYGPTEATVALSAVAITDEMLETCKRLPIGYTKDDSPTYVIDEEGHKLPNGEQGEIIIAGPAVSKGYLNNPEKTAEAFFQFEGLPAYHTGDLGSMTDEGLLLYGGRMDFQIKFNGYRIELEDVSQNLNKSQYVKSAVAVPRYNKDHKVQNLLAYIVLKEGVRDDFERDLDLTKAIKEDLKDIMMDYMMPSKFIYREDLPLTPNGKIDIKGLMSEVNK
Assay: DltA HTS assays (luminescent / fluorescent), inhibition of DltA enzymatic activity in vitro
Format: biochemical, S. agalactiae
From the text: The compounds effect on DltA enzyme has been based on the measure of the inhibition of DltA activity in vitro.
To this end, a recombinant protein Dlta was expressed and purified after cloning of the gene of S. agalatiae as described below:
Methods 1: DltA HTS Assays
The assay described below makes use of dithiothreitol (DTT) instead of DltC as reactive thiol in the catalyzed reaction. In fact, the inventors have shown that DTT, but also Coenzyme A and N-Acetylcysteamine are all thiols able to replace efficiently DltC. In addition, contrary to the prior art, radioactivity is not used: all the assays are based either on luminescent ATP detection, or on fluorescent AMP detection. They are easily amenable to miniaturized formats and fast readouts as required by HTS.
The assay buffer “AB” contains 50 mM Hepes pH8.0, 10 mM MgCl2, 50 mM KCl, 0.012% Triton-X100. The following components are added in a white polystyrene Costar plate up to a final volume of 30 μL: 3 μL DMSO, or inhibitor dissolved in DMSO and 27 μL DltA enzyme and DTT in AB. After 30 min of pre-incubation at room temperature, 30 μL of Substrates mix in AB are added in each well to a final volume of 60 μL. This reaction mixture is then composed of 10 nM DltA (produced in house from S. agalactiae), 0.5 mM D-Alanine (Sigma), 0.5 μM ATP (Sigma) and 1 mM DTT (Biochemika) in assay buffer. After 90 min of incubation at room temperature, 30 μL of the revelation mix are added to a final volume of 90 μL, including the following constituents at the respective final concentrations: 2 nM luciferase (Sigma), 30 μM D-luciferin (Sigma), 100 μM N-acetylcysteamine (Aldrich). Luminescence intensity is immediately measured on an Analyst-HT (Molecular Devices) and converted into inhibition percentages. For IC50 (Inhibitory Concentration 50%) determinations, the inhibitor is added at 6 to 10 different concentrations, and the related inhibitions are fitted to a classical langmuir equilibrium model using XLFIT (IDBS).
The assay buffer “AB” contains 50 mM Hepes pH8.0, 10 mM MgCl2, 50 mM KCl, 0.012% Triton-X100. The following components are added in a black polystyrene Costar plate up to a final volume of 50 μL: 5 μL DMSO, or inhibitor dissolved in DMSO and 45 μL DltA enzyme and DTT in AB. After 30 min of pre-incubation at room temperature, 50 μL of Substrates-revelation mix in AB are added in each well to a final volume of 100 μL. This reaction mixture is then composed of 5 nM DltA (produced in house from S. agalactiae), 0.5 mM D-Alanine (Sigma), 10 μM ATP (Sigma), 1 mM DTT (Biochemika), 10 nM Adenylate kinase (produced in house), 5 u/mL Pyruvate Kinase (Sigma), 50 μM phosphoenolpyruvate (Sigma), 5 u/mL Lactate deshydrogenase (Sigma) and 3 μM NADH (Sigma) in assay buffer. Fluorescence intensity of NADH (λex=360 nm, λem=520 nm) is immediately measured kinetically by a Fluostar Optima (BMG). Inhibition percentages are derived from fitted initial velocities. For IC50 determinations, the inhibitor is added at 6 to 10 different concentrations, and the related inhibitions are fitted to a classical langmuir equilibrium model using XLFIT (IDBS). FIG. 2 represents the data obtained using this method.
The capacity of compounds to inhibit DltA enzymatic activity was assessed using the DltA HTS assays described in method 1.

[1] = Table 1, DltA inhibition, HTS assays of method 1, read-out: IC50

SMILES	IC50 [1]	further results
OCCCNc1nc2cc(C(F)(F)F)ccc2n2ccnc12 [Example 1, 3-{[7-(trifluoromethyl)imidazo[1,2-a]quinoxalin-4-yl]amino}propan-1-ol]	3.2 µM	
OCCCNc1nc2cc(C(F)(F)F)ccc2n2c(Br)cnc12 [Example 2, 3-{[1-bromo-7-(trifluoromethyl)imidazo[1,2-a]quinoxalin-4 yl]amino}propan-1-ol]	2.5 µM	
OCCCNc1nc2cc(C(F)(F)F)ccc2n2c(I)cnc12 [Example 3, 3-{[1-iodo-7-(trifluoromethyl)imidazo[1,2-a]quinoxalin-4-yl]amino}propan-1-ol]	0.62 µM	
OCCCNc1nc2cc(Br)ccc2n2ccnc12 [Example 4, 3-(7-bromo-imidazo[1,2-a]quinoxalin-4-ylamino)-propan-1-ol]	6.6 µM	
OCCCNc1nc2cc(-c3ccccc3C(F)(F)F)ccc2n2ccnc12 [Example 5, 3-({7-[2-(trifluoromethyl)phenyl]imidazo[1,2-a]quinoxalin-4-yl}amino)propan-1-ol]	0.56 µM	
CCSc1ccc2c(c1)nc(NCCCO)c1nccn12 [Example 6]	6.5 µM	
OCCCNc1nc2cc(OC(F)(F)F)ccc2n2ccnc12 [Example 7, 3-{[7-(trifluoromethoxy)imidazo[1,2-a]quinoxalin-4-yl]amino}propan-1-ol]	2.2 µM	
CC(=O)Nc1cccc(-c2cnc3c(NCCCO)nc4cc(C(F)(F)F)ccc4n23)c1 [Example 8, N-{3-[4-(3-Hydroxy-propylamino)-7-trifluoromethyl-imidazo[1,2-a]quinoxalin-1-yl]-phenyl}-acetamide]	0.12 µM	
NS(=O)(=O)c1cccc(-c2cnc3c(NCCCO)nc4cc(C(F)(F)F)ccc4n23)c1 [Example 9, 3-{4-[(3-hydroxypropyl)amino]-7-(trifluoromethyl)imidazo[1,2-a]quinoxalin-1-yl}benzenesulfonamide]	0.69 µM	
COc1ccc(-c2cnc3c(NCCCO)nc4cc(C(F)(F)F)ccc4n23)cc1 [Example 10, 3-{[1-(4-methoxyphenyl)-7-(trifluoromethyl)imidazo[1,2-a]quinoxalin-4-yl]amino}propan-1-ol]	0.23 µM	
OCCCNc1nc2cc(C(F)(F)F)ccc2n2c(-c3ccccc3)cnc12 [Example 11, 3-{[1-phenyl-7-(trifluoromethyl)imidazo[1,2-a]quinoxalin-4-yl]amino}propan-1-ol]	0.73 µM	
CS(=O)(=O)Nc1ccc(-c2cnc3c(NCCCO)nc4cc(C(F)(F)F)ccc4n23)cc1 [Example 12, N-{4-[4-(3-Hydroxy-propylamino)-7-trifluoromethyl-imidazo[1,2-a]quinoxalin-1-yl]-phenyl}-methanesulfonamide]	0.087 µM	
COc1ccc(-c2cnc3c(NCCCO)nc4cc(C(F)(F)F)ccc4n23)cn1 [Example 13, 3-{[1-(6-methoxypyridin-3-yl)-7-(trifluoromethyl)imidazo[1,2-a]quinoxalin-4-yl]amino}propan-1-ol]	0.48 µM	
OCCCNc1nc2cc(C(F)(F)F)ccc2n2c(-c3ccc(N4CCOCC4)cc3)cnc12 [Example 14, 3-{[1-(4-N-morpholinophenyl)-7-(trifluoromethyl)imidazo[1,2-a]quinoxalin-4-yl]amino}propan-1-ol]	0.46 µM	
CNC(=O)c1ccc(-c2cnc3c(NCCCO)nc4cc(C(F)(F)F)ccc4n23)cc1 [Example 15, 4-{4-[(3-hydroxypropyl)amino]-7-(trifluoromethyl)imidazo[1,2-a]quinoxalin-1-yl}-N-methylbenzamide]	0.2 µM	
OCCCNc1nc2cc(C(F)(F)F)ccc2n2c(-c3cn[nH]c3)cnc12 [Example 17, 3-{[1-(1H-pyrazol-4-yl)-7-(trifluoromethyl)imidazo[1,2-a]quinoxalin-4-yl]amino}propan-1-ol]	0.51 µM	
NCc1ccc(-c2cnc3c(NCCCO)nc4cc(C(F)(F)F)ccc4n23)cc1 [Example 18, 3-({1-[4-(aminomethyl)phenyl]-7-(trifluoromethyl)imidazo[1,2-a]quinoxalin-4-yl}amino)propan-1-ol]	0.24 µM	
Nc1ncc(-c2cnc3c(NCCCO)nc4cc(C(F)(F)F)ccc4n23)cn1 [Example 20, 3-{[1-(2-aminopyrimidin-5-yl)-7-(trifluoromethyl)imidazo[1,2-a]quinoxalin-4-yl]amino}propan-1-ol]	0.86 µM	
COc1cc(-c2cnc3c(NCCCO)nc4cc(C(F)(F)F)ccc4n23)ccc1N [Example 21]	0.27 µM	
C=Cc1cnc2c(NCCCO)nc3cc(C(F)(F)F)ccc3n12 [Example 22, 3-{[7-(trifluoromethyl)-1-vinylimidazo[1,2-a]quinoxalin-4-yl]amino}propan-1-ol]	1 µM	
CS(=O)(=O)Nc1ccc(-c2cnc3c(NCCCO)nc4cc(C(F)(F)F)ccc4n23)cc1 [Example 23, N-{4-[4-(3-Hydroxy-propylamino)-7-trifluoromethyl-imidazo[1,2-a]quinoxalin-1-yl]phenyl}-methanesulfonamide Sodium salt]		IC50 (IC50 (μM), Table 1, DltA inhibition, HTS assays of method 1): 0.21 µM
COc1ccc(-n2cnc3c(NCCCO)nc4cc(C(F)(F)F)ccc4c32)cc1 [Example 24, 3-[1-(4-Methoxy-phenyl)-7-trifluoromethyl-1H-imidazo[4,5-c]quinolin-4-ylamino]-propan-1-ol]	3.9 µM	
Cn1cnc2c(NCCCO)nc3cc(C(F)(F)F)ccc3c21 [Example 25, 3-{[1-methyl-7-(trifluoromethyl)-1H-imidazo[4,5-c]quinolin-4-yl]amino}propan-1-ol]	17 µM	
OCCCNc1nc2cc(C(F)(F)F)ccc2c2c1ncn2[C@H]1CC[C@H](O)CC1 [Example 26, 4-[4-(3-hydroxy-propylamino)-7-trifluoromethyl-imidazo[4,5-c]quinolin-1-yl]-cyclohexanol]	20 µM	
OCCCNc1nc2cc(C(F)(F)F)ccc2n2c(C3=CCNCC3)cnc12 [Example 27, 3-[1-(1,2,3,6-tetrahydro-pyridin-4-yl)-7-trifluoromethyl-imidazo[1,2-a]quinoxalin-4-ylamino]-propan-1-ol]	2.6 µM	
CC(=O)N1CC=C(c2cnc3c(NCCCO)nc4cc(C(F)(F)F)ccc4n23)CC1 [Example 28, 1-{4-[4-(3-hydroxy-propylamino)-7-trifluoromethyl-imidazo[1,2-a]quinoxalin-1-yl]-3,6-dihydro-2H-pyridin-1-yl}-ethanone]	0.65 µM	
CS(=O)(=O)N1CC=C(c2cnc3c(NCCCO)nc4cc(C(F)(F)F)ccc4n23)CC1 [Example 29, 3-[1-(1-methanesulfonyl-1,2,3,6-tetrahydro-pyridin-4-yl)-7-trifluoromethyl-imidazo[1,2-a]quinoxalin-4-ylamino]-propan-ol]	0.41 µM	
COc1ccc(-c2cc(-c3cnc4c(NCCCO)nc5cc(C(F)(F)F)ccc5n34)[nH]n2)cc1 [Example 31, 3-({1-[1H-pyrazol-3-(4-methoxyphenyl)-5-yl]-7-(trifluoromethyl)imidazo[1,2-a]quinoxalin-4-yl}amino)propan-1-ol]		IC50: 0.79 µM
